What was measured:
HFFs = assay: Cytotoxicity assay (CCK-8 cell viability); assay type: cell-based, human
Experimental: (§1) Cultures of human foreskin fibroblast (HFF; HFF-1 ATCC® SCRC-1041™), Madin–Darby bovine kidney (MDBK; ECACC) and mouse embryonic fibroblast (NIH/3T3; ATCC® CRL-1658™) cells were retrieved from −80 °C stock and cultured continuously at 37 °C under atmosphere 5% CO2 in our laboratory. The NIH/3T3 and HFFs cells were maintained in Dulbecco Modified Eagle’s Medium (DMEM; Gibco, Grand Island, NY, USA), while MDBK cell line grown in Minimum Essential Medium Eagle (MEM; Gibco). Each medium was treated with 0.5% penicillin/streptomycin (Gibco), 10% inactivated fetal bovine serum and 2 mM glutamine. Every 72 to 96 h, the medium was replaced, and once 80% confluence was reached, the cell collection was performed by sub-culture protocol. To confirm the absence of mycoplasma contamination, 4,6-diamidino-2-phenylindole dihydrochloride stain (Sigma-Aldrich) was used.
(§2) The cell viability test was conducted in a 96-well plate as described elsewhere. Briefly, an aliquot of (100 µL) cells was implanted at a concentration of 5 × 10^4 cells/mL in DMEM or MEM with fetal bovine serum and incubated overnight under atmosphere 5% CO2 at 37 °C for attachment. Using two-fold dilutions, aliquots (10 µL) of drugs were added in triplicate per well to attain final concentrations of 50 to 1000 µM and further incubated for 24 h. The positive control wells containing cells mixed with the medium in 0.4% DMSO, whereas the negative control wells containing culture medium only. After a 24-h incubation, Cell Counting Kits-8 (CCK-8, 10 µL) was added to each well and then plate incubation was conducted for an additional 3 h and a microplate reader was used to assess the absorbance at 450 nm.

[1] = Hematology parameters (HGB, HCT, RBCs) in B. microti-infected treated mice; assay type: in vivo, BALB/c mice; parameters: HGB Mean: unit not given beside the values; RBCs Mean: unit not given here; conditions: DA 25, AV 20, ATR 25, ATR 12.5+DA 12.5, ATR 12.5+AV 10 mg/kg BW, days 4-8 p.i.
MDBK cells = assay: Cytotoxicity assay (CCK-8 cell viability); assay type: cell-based, bovine
Experimental: as §1, §2

NIH/3T3 cells = assay: Cytotoxicity assay (CCK-8 cell viability); assay type: cell-based, mouse
Experimental: as §1, §2

B. microti = conditions: B. microti-infected BALB/c mice, days 4-8 p.i.
B. divergens = assay: In vitro growth inhibition, Babesia fluorescent (SYBR Green I) assay; assay type: cell-based; conditions: 4 days culture, mean of triplicate experiments
Experimental: (§3) Babesia parasite was incubated and maintained at 37 °C in a humidifying chamber under 5% CO2, 5% O2, and 90% N2 atmosphere using a microaerophilic stationary-phase culture for conducting the in vitro experiment. Briefly, Germany strain Babesia divergens was cultured in cattle RBCs in Roswell Park Memorial Institute 1640 (RPMI 1640; Sigma-Aldrich, St. Louis, MO, USA) medium replenished with 40% cattle serum, while culture medium 199 (M199; Sigma-Aldrich) was utilized for the Argentina strain B. bigemina and Texas strain B. bovis, and T. equi USDA strain cultured in cattle RBCs supplemented with 40% cattle serum and horse RBCs maintained in hypoxanthine (MP Biomedicals, Santa Ana, CA, USA; final concentration 13.6 μg/mL) and 40% horse serum, respectively. GIT medium complemented with 40% horse serum was used as a growth medium for the USDA strain of B. caballi cultured in horse RBCs. To ensure free-bacterial contamination, amphotericin B (0.15 μg/mL) (Sigma-Aldrich), streptomycin (60 U/mL) and penicillin G (60 U/mL) were added to all medium.
(§4) The Babesia fluorescent assay was carried out on the in vitro culture as previously reported elsewhere to assess the growth of the inhibitory effectiveness of ATR and the combination treatment with DA, CF, and AV. Briefly, in three separate trials, using two-fold dilution, different concentrations of ATR, DA, CF, and AV were prepared in the culture medium and added in 96-well plates in triplicate with 1% parasitemia for T. equi, B. divergens and B. caballi at 5% HCT, while for B. bigemina and B. bovis using 2.5% HCT. The drug combined efficacy was conducted at the same time with the single-treatment assay in accordance with the Chou–Talalay method. […] On day four of culture, an aliquot (100 µL) of lysis buffer mixed with 0.2μL/mL SG1 was added per well; subsequently, it was covered with aluminum foil to prevent exposure to light. After incubation for 6-h at 37 °C, fluorescence readings were acquired on a spectrofluorimeter (Fluoroskan Ascent, Thermo Fisher Scientific, Oceanside, CA, USA) with a 485 nm excitation wavelength and a 518 nm emission wavelength.
(§5) The IC50 values of ATR, DA, CF, and AV were established from the in vitro growth inhibition by nonlinear regression curve fit on a GraphPad Prism (GraphPad Software Inc., San Diego, CA, USA). […] The significant variations (p < 0.05) among group mean values on parasitemia and one-way ANOVA Tukey’s test in GraphPad Prism version 5.0 was used to analyze hematology profiles in mice infected with B. microti.

T. equi = assay: as above; assay type: cell-based; conditions: 4 days culture, mean of triplicate experiments
Experimental: as §3, §4, §5

B. caballi = assay: as above; assay type: cell-based; conditions: 4 days culture, mean of triplicate experiments
Experimental: as §3, §4, §5

Q: With CC(=O)NCC(=O)O.CC(=O)NCC(=O)O.N=C(N)c1ccc(N=NNc2ccc(C(=N)N)cc2)cc1 [DA, diminazene aceturate] as the compound, how does the “Selective Index HFFs” value (HFFs; EC50 HFFs / IC50 B. bigemina) read?
A: ˃147.1

Q: What about the “Selective Index HFFs” value (HFFs; EC50 HFFs / IC50 B. bovis) of the same compound?
A: ˃285.7

Q: What about the “Selective Index HFFs” value (HFFs; EC50 HFFs / IC50 B. caballi) of the same compound?
A: ˃5000

Q: What about the “Selective Index HFFs” value (HFFs; EC50 HFFs / IC50 B. divergens) of the same compound?
A: ˃232.5

Q: And the “Selective Index HFFs” value (HFFs; EC50 HFFs / IC50 T. equi)?
A: ˃140.8

Q: And the EC50 (HFFs; HFFs, 24 h, CCK-8)?
A: > 100000 nM

Q: And the “HCT Mean” value ([1]; day 0)?
A: 46.48%

Q: And the “HGB Mean” value ([1]; day 0)?
A: 15.64

Q: And the “RBCs Mean” value ([1]; day 0)?
A: 990.625

Q: What about the “HCT Mean” value ([1]; day 4) of the same compound?
A: 46.18%

Q: And the “HGB Mean” value ([1]; day 4)?
A: 13.64

Q: And the “RBCs Mean” value ([1]; day 4)?
A: 954.75

Q: What about the “HCT Mean” value ([1]; day 8) of the same compound?
A: 46.18%

Q: And the “HGB Mean” value ([1]; day 8)?
A: 14.72

Q: What about the “RBCs Mean” value ([1]; day 8) of the same compound?
A: 888.25

Q: What about the “HCT Mean” value ([1]; day 12) of the same compound?
A: 44.1%

Q: And the “HGB Mean” value ([1]; day 12)?
A: 13.6

Q: What about the “RBCs Mean” value ([1]; day 12) of the same compound?
A: 860

Q: What about the “HCT Mean” value ([1]; day 16) of the same compound?
A: 45.52%

Q: What about the “HGB Mean” value ([1]; day 16) of the same compound?
A: 14.46

Q: What about the “RBCs Mean” value ([1]; day 16) of the same compound?
A: 870.25

Q: What about the “HCT Mean” value ([1]; day 20) of the same compound?
A: 44.14%

Q: What about the “HGB Mean” value ([1]; day 20) of the same compound?
A: 15.02

Q: And the “RBCs Mean” value ([1]; day 20)?
A: 880

Q: What about the “HCT Mean” value ([1]; day 24) of the same compound?
A: 46%

Q: What about the “HGB Mean” value ([1]; day 24) of the same compound?
A: 15.2

Q: What about the “RBCs Mean” value ([1]; day 24) of the same compound?
A: 888

Q: What about the “HCT Mean” value ([1]; day 28) of the same compound?
A: 47%

Q: What about the “HGB Mean” value ([1]; day 28) of the same compound?
A: 15.64

Q: And the “RBCs Mean” value ([1]; day 28)?
A: 984.75

Q: And the “HCT Mean” value ([1]; day 32)?
A: 49%

Q: And the “HGB Mean” value ([1]; day 32)?
A: 15.94

Q: What about the “RBCs Mean” value ([1]; day 32) of the same compound?
A: 990.625

Q: What about the “HCT Mean” value ([1]; day 36) of the same compound?
A: 49%

Q: What about the “HGB Mean” value ([1]; day 36) of the same compound?
A: 16.64

Q: And the “RBCs Mean” value ([1]; day 36)?
A: 997.625

Q: What about the “Selective Index MDBK” value (MDBK cells; EC50 MDBK / IC50 B. bigemina) of the same compound?
A: ˃147.1

Q: What about the “Selective Index MDBK” value (MDBK cells; EC50 MDBK / IC50 B. bovis) of the same compound?
A: ˃285.7

Q: And the “Selective Index MDBK” value (MDBK cells; EC50 MDBK / IC50 B. caballi)?
A: ˃5000

Q: What about the “Selective Index MDBK” value (MDBK cells; EC50 MDBK / IC50 B. divergens) of the same compound?
A: ˃232.5

Q: What about the “Selective Index MDBK” value (MDBK cells; EC50 MDBK / IC50 T. equi) of the same compound?
A: ˃140.8

Q: What about the EC50 (MDBK cells; MDBK cells, 24 h, CCK-8) of the same compound?
A: > 100000 nM

Q: And the “Selective Index NIH/3T3” value (NIH/3T3 cells; EC50 NIH/3T3 / IC50 B. bigemina)?
A: ˃147.1

Q: And the “Selective Index NIH/3T3” value (NIH/3T3 cells; EC50 NIH/3T3 / IC50 B. bovis)?
A: ˃285.7

Q: What about the “Selective Index NIH/3T3” value (NIH/3T3 cells; EC50 NIH/3T3 / IC50 B. caballi) of the same compound?
A: ˃5000

Q: What about the “Selective Index NIH/3T3” value (NIH/3T3 cells; EC50 NIH/3T3 / IC50 B. divergens) of the same compound?
A: ˃232.5

Q: What about the “Selective Index NIH/3T3” value (NIH/3T3 cells; EC50 NIH/3T3 / IC50 T. equi) of the same compound?
A: ˃140.8

Q: What about the EC50 (NIH/3T3 cells; NIH/3T3 cells, 24 h, CCK-8, read-out: EC50 NIH/3T3) of the same compound?
A: > 100000 nM

Q: What about the “first day on which parasitemia was not detected by microscopy” value (B. microti; DA 25, AV 20, ATR 25, ATR 12.5+DA 12.5, ATR 12.5+AV 10 mg/kg BW) of the same compound?
A: 16 day p.i.

Q: What about the peak parasitemia level (B. microti; DA at 25 mg/kg, peak on day 10) of the same compound?
A: 7.94%

Q: What about the IC50 (B. divergens) of the same compound?
A: 430 ± 50 nM

Q: What about the IC50 (T. equi) of the same compound?
A: 710 ± 50 nM

Q: And the IC50 (B. caballi)?
A: 20 nM

Reference: PMC7167990, “Therapeutic Effects of Atranorin towards the Proliferation of Babesia and Theileria Parasites” (Pathogens, 2020)
